Read-outs that look alike come from different tables or passages of the source. A value given as a limit tells only on which side of the number the result lay.

One test concerns SW480 cells. The test can be described thus: MTS cell viability assay, SW480. The test is classed as cell-based. The note with it: Homo sapiens, SW480, 72 h, mean ± SD (n = 3), Table 4, read-out: MTS cell viability IC50, Wnt hyperactive SW480 Cells (converted). How it is done: MTS Cell Viability Assay. Colorectal cancer cells (SW480 and HCT116), TNBC cells (MDA-MB-231, MDA-MB-468, and BT-20), and lung cancer A549 cells were seeded in 96-well plates at 5×10^3 cells/well, maintained overnight at 37° C., and incubated with the tested compounds at various concentrations. Cell viability was monitored after 72 h using a freshly prepared mixture of 1 part phenazine methosulfate (PMS, Sigma) solution (0.92 mg/mL) and 19 parts 3-(4,5-dimethylthiazol-2-yl)-5-(3-carboxymethoxyphenyl)-2-(4-sulfophenyl)-2H-tetrazolium (MTS, Promega) solution (2 mg/mL). Cells were incubated in 10 μL of this solution at 37° C. for 3 h, and A490 was measured. The effect of each compound is expressed as the concentration required to reduce A490 by 50% (IC50) relative to DMSO-treated cells. Experiments were performed in triplicate.

For test [1], the target named is T1, β-catenin/Tcf protein-protein interaction (Homo sapiens, UniProt P35222).
T1 construct: Wild-type β-catenin (residues 138-781) were cloned into a pET-28b vector; 6×histidine (C); made in house; host or cells: E. coli BL21 DE3
T1 sequence (P35222 138-781): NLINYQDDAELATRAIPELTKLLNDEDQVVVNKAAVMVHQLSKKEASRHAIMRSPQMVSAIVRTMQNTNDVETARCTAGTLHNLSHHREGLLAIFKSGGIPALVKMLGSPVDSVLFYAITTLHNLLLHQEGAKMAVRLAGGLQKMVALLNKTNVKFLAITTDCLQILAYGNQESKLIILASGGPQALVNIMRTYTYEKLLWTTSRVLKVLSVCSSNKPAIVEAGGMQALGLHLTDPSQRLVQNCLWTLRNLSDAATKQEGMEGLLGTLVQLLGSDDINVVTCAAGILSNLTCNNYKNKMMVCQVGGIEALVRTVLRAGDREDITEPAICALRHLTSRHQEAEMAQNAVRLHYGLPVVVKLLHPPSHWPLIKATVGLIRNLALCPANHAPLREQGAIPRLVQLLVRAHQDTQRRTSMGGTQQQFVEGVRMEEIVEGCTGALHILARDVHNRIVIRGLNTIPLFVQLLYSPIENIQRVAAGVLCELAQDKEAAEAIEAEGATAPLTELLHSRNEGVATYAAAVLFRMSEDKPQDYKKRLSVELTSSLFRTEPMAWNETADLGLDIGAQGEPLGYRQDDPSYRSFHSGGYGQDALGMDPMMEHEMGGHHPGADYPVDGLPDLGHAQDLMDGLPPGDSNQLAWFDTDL
The test can be described thus: FP competitive inhibition assay. The format is binding. In short, it runs like this:
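His-tagged human β-catenin (residues 138-781, E. coli-expressed) at 10 nM with 2.5 nM fluorescein-labeled Tcf4 (7-51) in PBS-type buffer with bovine γ-globulin and 0.01% Triton X-100. Compounds added, 1.5 h at 4 °C, 1% DMSO, before fluorescence polarization read. IC50 by nonlinear fit; Ki derived from IC50.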

[2] abbreviates: Assay 1, mean ± SD (n = 3), read-out: Ki ± SD, Assay 1.
Setting [3] is: Assay 2, mean ± SD (n = 3), read-out: Ki ± SD, Assay 2.

On to `COC(=O)CCn1c(CCc2nc3ccccc3s2)c(CCc2ccc(Cl)cc2)c2cc(C(=O)OC)ccc21` [Compound 43, Methyl 2-(2-(benzo[d]thiazol-2-yl)ethyl)-3-(4-chlorophenethyl)-1-(3-methoxy-3-oxopropyl)-1H-indole-5-carboxylate], for which, in the test with SW480 cells, the half-maximal inhibitory concentration (IC50) (as a rule, the point on the concentration scale where inhibition reaches its midpoint) is over 400 µM.

On to `COc1ccc2sc(CCc3c(CCc4ccc(Cl)cc4)c4cc(C(=O)NCc5ccc(Cl)cc5)ccc4n3CCc3nn[nH]n3)nc2c1` [Compound 48, 1-(2-(2H-tetrazol-5-yl)ethyl)-N-(4-chlorobenzyl)-3-(4-chlorophenethyl)-2-(2-(5-methoxybenzo-[d]thiazol-2-yl)ethyl)-1H-indole-5-carboxamide], for which the 50% inhibitory concentration (IC50) in the test on SW480 cells was 9.3 ± 4.9 µM. Also, the Ki (in general, the dissociation constant of the complex between target and ligand, obtained from inhibition or displacement) in test [1] (setting [2]) worked out at 2.4 ± 0.56 µM; in test [1] (setting [3]), 3.2 ± 0.24 µM.

For the molecule `COc1ccc2nc(C#Cc3c(CCc4ccc(Cl)cc4)c4cc(C(=O)O)ccc4n3CCc3nn[nH]n3)sc2c1` [Compound 72, 1-(2-(2H-tetrazol-5-yl)ethyl)-3-(4-chlorophenethyl)-2-((6-methoxybenzo[d]thiazol-2-yl)ethynyl)-1H-indole-5-carboxylic acid], the inhibition constant Ki in test [1] (setting [2]) came to 0.6 ± 0.039 µM.

Regarding `COc1ccc2nc(C#Cc3c(CCc4ccc(C)cc4)c4cc(C(=O)O)ccc4n3CCc3nn[nH]n3)sc2c1` [Compound 73, 1-(2-(2H-tetrazol-5-yl)ethyl)-2-((6-methoxybenzo[d]thiazol-2-yl)ethynyl)-3-(4-methylphenethyl)-1H-indole-5-carboxylic acid], the Ki in test [1] (setting [2]) was 1 ± 0.076 µM.

Take `COc1ccc2nc(C#Cc3c(CCC4CCOCC4)c4cc(C(=O)O)ccc4n3CCc3nn[nH]n3)sc2c1` [Compound 74, 1-(2-(2H-tetrazol-5-yl)ethyl)-2-((6-methoxybenzo[d]thiazol-2-yl)ethynyl)-3-(2-(tetrahydro-2H-pyran-4-yl)ethyl)-1H-indole-5-carboxylic acid]: the inhibition constant Ki in test [1] (setting [2]) amounted to 4.2 ± 0.29 µM; in test [1] (setting [3]), 6 ± 0.39 µM.

Turning to `COc1ccc2nc(C#Cc3c(CCc4ccc5c(c4)OCCO5)c4cc(C(=O)O)ccc4n3CCc3nn[nH]n3)sc2c1` [Compound 75, 1-(2-(2H-tetrazol-5-yl)ethyl)-3-(2-(2,3-dihydrobenzo[b][1,4]dioxin-6-yl)ethyl)-2-((6-methoxybenzo[d]thiazol-2-yl)ethynyl)-1H-indole-5-carboxylic acid], the values for the inhibition constant (Ki) in test [1] (setting [2]) and in test [1] (setting [3]) were 1.8 ± 0.11 µM and 0.68 ± 0.059 µM, respectively.

On to `Cc1ccc(CCc2c(-c3cccs3)n(CCc3nn[nH]n3)c3ccc(C(=O)O)cc23)cc1` [Compound 77, 1-(2-(2H-tetrazol-5-yl)ethyl)-3-(4-methylphenethyl)-2-(thiophen-2-yl)-1H-indole-5-carboxylic acid], for which the inhibitory constant (Ki) in test [1] (setting [2]) was found to be 1.6 ± 0.11 µM.

Take `Cc1ccc(CCc2c(-c3csc4ccccc34)n(CCc3nn[nH]n3)c3ccc(C(=O)O)cc23)cc1` [Compound 79, 1-(2-(2H-tetrazol-5-yl)ethyl)-2-(benzo[b]thiophen-3-yl)-3-(4-methylphenethyl)-1H-indole-5-carboxylic acid]: the Ki was 0.57 ± 0.052 µM in test [1] (setting [2]) and 0.7 ± 0.06 µM in test [1] (setting [3]).

On to `Cc1ccc(CCc2c(-c3csc(C(F)F)c3)n(CCc3nn[nH]n3)c3ccc(C(=O)O)cc23)cc1` [Compound 80, 1-(2-(2H-tetrazol-5-yl)ethyl)-2-(5-(difluoromethyl)thiophen-3-yl)-3-(4-methylphenethyl)-1H-indole-5-carboxylic acid], for which the Ki turned out to be 0.92 ± 0.1 µM in test [1] (setting [2]) and 1.9 ± 0.13 µM in test [1] (setting [3]).

With `Cc1ccc(CCc2c(-c3cc[nH]c3)n(CCc3nn[nH]n3)c3ccc(C(=O)O)cc23)cc1` [Compound 81, 1-(2-(2H-tetrazol-5-yl)ethyl)-3-(4-methylphenethyl)-2-(1H-pyrrol-3-yl)-1H-indole-5-carboxylic acid], the inhibition constant Ki in test [1] (setting [2]) is 1.2 ± 0.28 µM; in test [1] (setting [3]), 3.2 ± 0.79 µM.

As for `Cc1ccc(CCc2c(-c3cccnc3)n(CCc3nn[nH]n3)c3ccc(C(=O)O)cc23)cc1` [Compound 82, 1-(2-(2H-tetrazol-5-yl)ethyl)-3-(4-methylphenethyl)-2-(pyridin-3-yl)-1H-indole-5-carboxylic acid], the inhibition constant Ki worked out at 8.4 ± 0.58 µM in test [1] (setting [2]) and 30 ± 1.9 µM in test [1] (setting [3]).

As for `Cc1ccc(CCc2c(-c3ccncc3)n(CCc3nn[nH]n3)c3ccc(C(=O)O)cc23)cc1` [Compound 83, 1-(2-(2H-tetrazol-5-yl)ethyl)-3-(4-methylphenethyl)-2-(pyridin-4-yl)-1H-indole-5-carboxylic acid], the Ki in test [1] (setting [2]) came out at 20 ± 1.1 µM.

Turning to `O=C(O)c1ccc2c(c1)c(CCC1CCCCC1)c(-c1ccsc1)n2CCc1nn[nH]n1` [Compound 85, 1-(2-(2H-tetrazol-5-yl)ethyl)-3-(2-cyclohexylethyl)-2-(thiophen-3-yl)-1H-indole-5-carboxylic acid], the Ki was determined as 0.81 ± 0.052 µM in test [1] (setting [2]); 8.2 ± 0.19 µM in test [1] (setting [3]); 0.52 ± 0.048 µM in test [1] (Assay 3, mean ± SD (n = 3), read-out: Ki ± SD, Assay 3).

On to `O=C(O)c1ccc2c(c1)c(CCC1CCOCC1)c(-c1ccsc1)n2CCc1nn[nH]n1` [Compound 86, 1-(2-(2H-tetrazol-5-yl)ethyl)-3-(2-(tetrahydro-2H-pyran-4-yl)ethyl)-2-(thiophen-3-yl)-1H-indole-5-carboxylic acid], for which the figures for the Ki in test [1] (setting [2]) and in test [1] (setting [3]) were 1.3 ± 0.4 µM and 1.2 ± 0.23 µM, respectively.

Consider `O=C(O)c1ccc2c(c1)c(CCc1ccc3c(c1)OCCO3)c(-c1ccsc1)n2CCc1nn[nH]n1` [Compound 87, 1-(2-(2H-tetrazol-5-yl)ethyl)-3-(2-(2,3-dihydrobenzo[b][1,4]dioxin-6-yl)ethyl)-2-(thiophen-3-yl)-1H-indole-5-carboxylic acid], for which the inhibition constant Ki in test [1] (setting [2]) was 3.4 ± 0.86 µM; in test [1] (setting [3]), 1.3 ± 0.066 µM.

Take `Cc1ccc(CCc2c(-c3ccsc3)n(CCc3nn[nH]n3)c3ccc(C(N)=O)cc23)cc1` [Compound 88, 1-(2-(2H-tetrazol-5-yl)ethyl)-3-(4-methylphenethyl)-2-(thiophen-3-yl)-1H-indole-5-carboxamide]: the inhibition constant (Ki) in test [1] (setting [2]) is 16 ± 0.71 µM; in test [1] (setting [3]), about 24 µM.

On to `CNC(=O)c1ccc2c(c1)c(CCc1ccc(C)cc1)c(-c1ccsc1)n2CCc1nn[nH]n1` [Compound 89, 1-(2-(2H-tetrazol-5-yl)ethyl)-N-methyl-3-(4-methylphenethyl)-2-(thiophen-3-yl)-1H-indole-5-carboxamide], for which the Ki in test [1] (setting [2]) is over 24 µM.

As to `CONC(=O)c1ccc2c(c1)c(CCc1ccc(C)cc1)c(-c1ccsc1)n2CCc1nn[nH]n1` [Compound 91, 1-(2-(2H-tetrazol-5-yl)ethyl)-N-methoxy-3-(4-methylphenethyl)-2-(thiophen-3-yl)-1H-indole-5-carboxamide], the Ki in test [1] (setting [2]) amounted to 31 ± 5.8 µM.

For `O=C(NCc1ccon1)c1ccc2c(c1)c(CCC1CCCCC1)c(-c1ccsc1)n2CCc1nn[nH]n1` [Compound 95, 1-(2-(2H-tetrazol-5-yl)ethyl)-3-(2-cyclohexylethyl)-N-(isoxazol-3-ylmethyl)-2-(thiophen-3-yl)-1H-indole-5-carboxamide], the Ki in test [1] (setting [2]) came out at 3.1 ± 0.068 µM; in test [1] (setting [3]), 15 ± 2.8 µM.

For `O=C(NCc1ccon1)c1ccc2c(c1)c(CCC1CCOCC1)c(-c1ccsc1)n2CCc1nn[nH]n1` [Compound 96, 1-(2-(2H-tetrazol-5-yl)ethyl)-N-(isoxazol-3-ylmethyl)-3-(2-(tetrahydro-2H-pyran-4-yl)ethyl)-2-(thiophen-3-yl)-1H-indole-5-carboxamide], the Ki in test [1] (setting [2]) and in test [1] (setting [3]) was over 25 µM each time.

On to `Cc1ccc(CCc2c(-c3cn[nH]c3)n(CCc3nn[nH]n3)c3ccc(C(=O)NCc4ccon4)cc23)cc1` [Compound 97, 1-(2-(2H-tetrazol-5-yl)ethyl)-N-(isoxazol-3-ylmethyl)-3-(4-methylphenethyl)-2-(1H-pyrazol-4-yl)-1H-indole-5-carboxamide], for which, in test [1] (setting [2]), the inhibitory constant (Ki) was determined as 17 ± 1.6 µM.

The values above are taken from patent publication US11530186B2, “Inhibitors for the β-catenin / T-cell factor protein-protein interaction” (H. LEE MOFFITT CANCER CENTER AND RESEARCH INSTITUTE, INC., priority 2018, dated 2022).
